Measured values published in ChEMBL document CHEMBL4257449, “New N-(2-phenyl-4-oxo-1,3-thiazolidin-3-yl)-1,2-benzothiazole-3-carboxamides and acetamides as antimicrobial agents” (2017).
≈ marks a conversion by molar mass, not a printed value.

Columns and labels:
Escherichia coli [1] = test: Bactericidal activity against Escherichia coli ATCC 35210 incubated for 24 hrs followed by serial sub-cultivation and measured after 24 hrs by microdilution method; assay type: functional
Pseudomonas aeruginosa [2] = test: Bactericidal activity against Pseudomonas aeruginosa ATCC 27853 incubated for 24 hrs followed by serial sub-cultivation and measured after 24 hrs by microdilution method; assay type: functional
Aspergillus niger [3] = test: Antifungal activity against Aspergillus niger ATCC 6275 after 72 hrs by serial dilution method; assay type: functional; settings: ATCC 6275, 72 h
Trichoderma viride [4] = test: Antifungal activity against Trichoderma viride IAM 5061 after 72 hrs by serial dilution method; assay type: functional; settings: IAM 5061, 72 h
Micrococcus flavus [5] = test: Bactericidal activity against Micrococcus flavus ATCC 10240 incubated for 24 hrs followed by serial sub-cultivation and measured after 24 hrs by microdilution method; assay type: functional
Bacillus cereus [6] = test: Antibacterial activity against Bacillus cereus after 24 hrs by microdilution method; assay type: functional
Candida albicans [7] = test: Fungicidal activity against Candida albicans incubated for 72 hrs followed by serial sub-cultivation for 72 hrs and measured after 72 hrs by serial dilution method; assay type: functional
Penicillium ochrochloron [8] = test: Antifungal activity against Penicillium ochrochloron ATCC 9112 after 72 hrs by serial dilution method; assay type: functional; settings: ATCC 9112, 72 h
Staphylococcus aureus [9] = test: Bactericidal activity against Staphylococcus aureus ATCC 6538 incubated for 24 hrs followed by serial sub-cultivation and measured after 24 hrs by microdilution method; assay type: functional
Staphylococcus aureus [10] = test: Antibacterial activity against Staphylococcus aureus ATCC 6538 after 24 hrs by microdilution method; assay type: functional; settings: ATCC 6538, 24 h
Aspergillus ochraceus [11] = test: Fungicidal activity against Aspergillus ochraceus ATCC 12066 incubated for 72 hrs followed by serial sub-cultivation for 72 hrs and measured after 72 hrs by serial dilution method; assay type: functional
Salmonella typhimurium [12] = test: Bactericidal activity against Salmonella typhimurium ATCC 13311 incubated for 24 hrs followed by serial sub-cultivation and measured after 24 hrs by microdilution method; assay type: functional, Salmonella enterica subsp. enterica serovar Typhimurium
Candida albicans [13] = test: Antifungal activity against Candida albicans after 72 hrs by serial dilution method; assay type: functional
Salmonella typhimurium [14] = test: Antibacterial activity against Salmonella typhimurium ATCC 13311 after 24 hrs by microdilution method; assay type: functional, Salmonella enterica subsp. enterica serovar Typhimurium; settings: Salmonella enterica, ATCC 13311, 24 h
Listeria monocytogenes [15] = test: Antibacterial activity against Listeria monocytogenes NCTC 7973 after 24 hrs by microdilution method; assay type: functional; settings: NCTC 7973, 24 h
Escherichia coli [16] = test: Antibacterial activity against Escherichia coli ATCC 35210 after 24 hrs by microdilution method; assay type: functional; settings: ATCC 35210, 24 h
Enterobacter cloacae [17] = test: Bactericidal activity against Enterobacter cloacae incubated for 24 hrs followed by serial sub-cultivation and measured after 24 hrs by microdilution method; assay type: functional
Talaromyces funiculosus [18] = test: Fungicidal activity against Penicillium funiculosum ATCC 36839 incubated for 72 hrs followed by serial sub-cultivation for 72 hrs and measured after 72 hrs by serial dilution method; assay type: functional
Aspergillus niger [19] = test: Fungicidal activity against Aspergillus niger ATCC 6275 incubated for 72 hrs followed by serial sub-cultivation for 72 hrs and measured after 72 hrs by serial dilution method; assay type: functional
Pseudomonas aeruginosa [20] = test: Antibacterial activity against Pseudomonas aeruginosa ATCC 27853 after 24 hrs by microdilution method; assay type: functional; settings: ATCC 27853, 24 h
Listeria monocytogenes [21] = test: Bactericidal activity against Listeria monocytogenes NCTC 7973 incubated for 24 hrs followed by serial sub-cultivation and measured after 24 hrs by microdilution method; assay type: functional
Enterobacter cloacae [22] = test: Antibacterial activity against Enterobacter cloacae after 24 hrs by microdilution method; assay type: functional
Aspergillus versicolor [23] = test: Antifungal activity against Aspergillus versicolor ATCC 11730 after 72 hrs by serial dilution method; assay type: functional; settings: ATCC 11730, 72 h
Aspergillus fumigatus [24] = test: Antifungal activity against Aspergillus fumigatus after 72 hrs by serial dilution method; assay type: functional
Penicillium ochrochloron [25] = test: Fungicidal activity against Penicillium ochrochloron ATCC 9112 incubated for 72 hrs followed by serial sub-cultivation for 72 hrs and measured after 72 hrs by serial dilution method; assay type: functional
Aspergillus fumigatus [26] = test: Fungicidal activity against Aspergillus fumigatus incubated for 72 hrs followed by serial sub-cultivation for 72 hrs and measured after 72 hrs by serial dilution method; assay type: functional
Aspergillus ochraceus [27] = test: Antifungal activity against Aspergillus ochraceus ATCC 12066 after 72 hrs by serial dilution method; assay type: functional; settings: ATCC 12066, 72 h
Bacillus cereus [28] = test: Bactericidal activity against Bacillus cereus incubated for 24 hrs followed by serial sub-cultivation and measured after 24 hrs by microdilution method; assay type: functional
Trichoderma viride [29] = test: Fungicidal activity against Trichoderma viride IAM 5061 incubated for 72 hrs followed by serial sub-cultivation for 72 hrs and measured after 72 hrs by serial dilution method; assay type: functional
Aspergillus versicolor [30] = test: Fungicidal activity against Aspergillus versicolor ATCC 11730 incubated for 72 hrs followed by serial sub-cultivation for 72 hrs and measured after 72 hrs by serial dilution method; assay type: functional
Talaromyces funiculosus [31] = test: Antifungal activity against Penicillium funiculosum ATCC 36839 after 72 hrs by serial dilution method; assay type: functional; settings: ATCC 36839, 72 h
Micrococcus flavus [32] = test: Antibacterial activity against Micrococcus flavus ATCC 10240 after 24 hrs by microdilution method; assay type: functional; settings: ATCC 10240, 24 h

O=C(N/N=C/c1c(F)cccc1F)c1nsc2ccccc12
MBC99.5 (Escherichia coli [1]): 50.4 ×10⁻² umol/ml | MBC99.5 (Pseudomonas aeruginosa [2]): 50.4 ×10⁻² umol/ml | MIC (Aspergillus niger [3]): 252 µM (≈ 80 µg/mL) | MIC (Trichoderma viride [4]): 126 µM (≈ 40 µg/mL) | MBC99.5 (Micrococcus flavus [5]): 50.4 ×10⁻² umol/ml | MIC (Bacillus cereus [6]): 126 µM (≈ 40 µg/mL) | MFC99.5 (Candida albicans [7]): 50.4 ×10⁻² umol/ml | MIC (Penicillium ochrochloron [8]): 126 µM (≈ 40 µg/mL) | MBC99.5 (Staphylococcus aureus [9]): 25.2 ×10⁻² umol/ml | MIC (Staphylococcus aureus [10]): 126 µM (≈ 40 µg/mL) | MFC99.5 (Aspergillus ochraceus [11]): 12.6 ×10⁻² umol/ml | MBC99.5 (Salmonella typhimurium [12]): 6.3 ×10⁻² umol/ml | MIC (Candida albicans [13]): 252 µM (≈ 80 µg/mL) | MIC (Salmonella typhimurium [14]): 31.5 µM (≈ 10 µg/mL) | MIC (Listeria monocytogenes [15]): 252 µM (≈ 80 µg/mL) | MIC (Escherichia coli [16]): 252 µM (≈ 80 µg/mL) | MBC99.5 (Enterobacter cloacae [17]): 25.2 ×10⁻² umol/ml | MFC99.5 (Talaromyces funiculosus [18]): 12.6 ×10⁻² umol/ml | MFC99.5 (Aspergillus niger [19]): 50.4 ×10⁻² umol/ml | MIC (Pseudomonas aeruginosa [20]): 252 µM (≈ 80 µg/mL) | MBC99.5 (Listeria monocytogenes [21]): 50.4 ×10⁻² umol/ml | MIC (Enterobacter cloacae [22]): 63 µM (≈ 20 µg/mL) | MIC (Aspergillus versicolor [23]): 15.8 µM (≈ 5.01 µg/mL) | MIC (Aspergillus fumigatus [24]): 15.8 µM (≈ 5.01 µg/mL) | MFC99.5 (Penicillium ochrochloron [25]): 25.2 ×10⁻² umol/ml | MFC99.5 (Aspergillus fumigatus [26]): 25.2 ×10⁻² umol/ml | MIC (Aspergillus ochraceus [27]): 15.8 µM (≈ 5.01 µg/mL) | MBC99.5 (Bacillus cereus [28]): 25.2 ×10⁻² umol/ml | MFC99.5 (Trichoderma viride [29]): 25.2 ×10⁻² umol/ml | MFC99.5 (Aspergillus versicolor [30]): 12.6 ×10⁻² umol/ml | MIC (Talaromyces funiculosus [31]): 31.5 µM (≈ 10 µg/mL) | MIC (Micrococcus flavus [32]): 252 µM (≈ 80 µg/mL)

CN[C@@H]1[C@H](O[C@H]2[C@H](O[C@H]3[C@H](O)[C@@H](O)[C@H](N=C(N)N)[C@@H](O)[C@@H]3N=C(N)N)O[C@@H](C)[C@]2(O)C=O)O[C@@H](CO)[C@H](O)[C@H]1O [STREPTOMYCIN]
MBC99.5 (Escherichia coli [1]): 34.4 ×10⁻² umol/ml | MBC99.5 (Pseudomonas aeruginosa [2]): 34.4 ×10⁻² umol/ml | MBC99.5 (Micrococcus flavus [5]): 17.2 ×10⁻² umol/ml | MIC (Bacillus cereus [6]): 43 µM (≈ 25 µg/mL) | MBC99.5 (Staphylococcus aureus [9]): 34.4 ×10⁻² umol/ml | MIC (Staphylococcus aureus [10]): 172 µM (≈ 100 µg/mL) | MBC99.5 (Salmonella typhimurium [12]): 34.4 ×10⁻² umol/ml | MIC (Salmonella typhimurium [14]): 172 µM (≈ 100 µg/mL) | MIC (Listeria monocytogenes [15]): 258 µM (≈ 150 µg/mL) | MIC (Escherichia coli [16]): 172 µM (≈ 100 µg/mL) | MBC99.5 (Enterobacter cloacae [17]): 8.6 ×10⁻² umol/ml | MIC (Pseudomonas aeruginosa [20]): 172 µM (≈ 100 µg/mL) | MBC99.5 (Listeria monocytogenes [21]): 51.6 ×10⁻² umol/ml | MIC (Enterobacter cloacae [22]): 43 µM (≈ 25 µg/mL) | MBC99.5 (Bacillus cereus [28]): 8.6 ×10⁻² umol/ml | MIC (Micrococcus flavus [32]): 86 µM (≈ 50 µg/mL)

CC(=O)N1CCN(c2ccc(OCC3COC(Cn4ccnc4)(c4ccc(Cl)cc4Cl)O3)cc2)CC1 (stereo unspecified) [KETOCONAZOLE]
MIC (Aspergillus niger [3]): 380 µM (≈ 202 µg/mL) | MIC (Trichoderma viride [4]): 1900 µM (≈ 1010 µg/mL) | MFC99.5 (Candida albicans [7]): 56 ×10⁻² umol/ml | MIC (Penicillium ochrochloron [8]): 1900 µM (≈ 1010 µg/mL) | MFC99.5 (Aspergillus ochraceus [11]): 38 ×10⁻² umol/ml | MIC (Candida albicans [13]): 380 µM (≈ 202 µg/mL) | MFC99.5 (Talaromyces funiculosus [18]): 95 ×10⁻² umol/ml | MFC99.5 (Aspergillus niger [19]): 95 ×10⁻² umol/ml | MIC (Aspergillus versicolor [23]): 380 µM (≈ 202 µg/mL) | MIC (Aspergillus fumigatus [24]): 380 µM (≈ 202 µg/mL) | MFC99.5 (Penicillium ochrochloron [25]): 285 ×10⁻² umol/ml | MFC99.5 (Aspergillus fumigatus [26]): 95 ×10⁻² umol/ml | MIC (Aspergillus ochraceus [27]): 280 µM (≈ 149 µg/mL) | MFC99.5 (Trichoderma viride [29]): 285 ×10⁻² umol/ml | MFC99.5 (Aspergillus versicolor [30]): 95 ×10⁻² umol/ml | MIC (Talaromyces funiculosus [31]): 380 µM (≈ 202 µg/mL)

CC1(C)S[C@@H]2[C@H](NC(=O)[C@H](N)c3ccccc3)C(=O)N2[C@H]1C(=O)O [AMPICILLIN]
MBC99.5 (Escherichia coli [1]): 49.2 ×10⁻² umol/ml | MBC99.5 (Pseudomonas aeruginosa [2]): 124 ×10⁻² umol/ml | MBC99.5 (Micrococcus flavus [5]): 37.2 ×10⁻² umol/ml | MIC (Bacillus cereus [6]): 248 µM (≈ 86.7 µg/mL) | MBC99.5 (Staphylococcus aureus [9]): 37.2 ×10⁻² umol/ml | MIC (Staphylococcus aureus [10]): 248 µM (≈ 86.7 µg/mL) | MBC99.5 (Salmonella typhimurium [12]): 49.2 ×10⁻² umol/ml | MIC (Salmonella typhimurium [14]): 248 µM (≈ 86.7 µg/mL) | MIC (Listeria monocytogenes [15]): 372 µM (≈ 130 µg/mL) | MIC (Escherichia coli [16]): 372 µM (≈ 130 µg/mL) | MBC99.5 (Enterobacter cloacae [17]): 37.2 ×10⁻² umol/ml | MIC (Pseudomonas aeruginosa [20]): 744 µM (≈ 260 µg/mL) | MBC99.5 (Listeria monocytogenes [21]): 74.4 ×10⁻² umol/ml | MIC (Enterobacter cloacae [22]): 248 µM (≈ 86.7 µg/mL) | MBC99.5 (Bacillus cereus [28]): 37.2 ×10⁻² umol/ml | MIC (Micrococcus flavus [32]): 248 µM (≈ 86.7 µg/mL)

c1ccc(-c2ccc(C(c3ccccc3)n3ccnc3)cc2)cc1 (stereo unspecified) [BIFONAZOLE]
MIC (Aspergillus niger [3]): 480 µM (≈ 149 µg/mL) | MIC (Trichoderma viride [4]): 640 µM (≈ 199 µg/mL) | MFC99.5 (Candida albicans [7]): 64 ×10⁻² umol/ml | MIC (Penicillium ochrochloron [8]): 640 µM (≈ 199 µg/mL) | MFC99.5 (Aspergillus ochraceus [11]): 80 ×10⁻² umol/ml | MIC (Candida albicans [13]): 320 µM (≈ 99.3 µg/mL) | MFC99.5 (Talaromyces funiculosus [18]): 80 ×10⁻² umol/ml | MFC99.5 (Aspergillus niger [19]): 64 ×10⁻² umol/ml | MIC (Aspergillus versicolor [23]): 320 µM (≈ 99.3 µg/mL) | MIC (Aspergillus fumigatus [24]): 480 µM (≈ 149 µg/mL) | MFC99.5 (Penicillium ochrochloron [25]): 80.5 ×10⁻² umol/ml | MFC99.5 (Aspergillus fumigatus [26]): 64 ×10⁻² umol/ml | MIC (Aspergillus ochraceus [27]): 480 µM (≈ 149 µg/mL) | MFC99.5 (Trichoderma viride [29]): 80 ×10⁻² umol/ml | MFC99.5 (Aspergillus versicolor [30]): 64 ×10⁻² umol/ml | MIC (Talaromyces funiculosus [31]): 640 µM (≈ 199 µg/mL)
